From patent publication US20240246945A1, “NOVEL COMPOUND FOR CROP PROTECTANT” (LG CHEM, LTD., priority 2010, published 2024) come the findings set out here.

The assay relates to Myzus persicae (Sulzer). Description: Insecticidal Activity Test 2 against Myzus persicae (Sulzer), foliar spray on potted peppers, approximately 25 ppm. The format is in vivo. The following applies: in Capsicum, 120 h, approximately 25 ppm drug solution in water, counted on day 5 after spraying, read-out: mortality rate rating. From the text: Insecticidal Activity Test 2 Against Myzus persicae (Sulzer)
Peppers were planted in plastic pots with a diameter of 8 cm and a height of 8 cm, Myzus persicae (Sulzer) was reproduced therein, and then the number of Myzus persicae (Sulzer) in each pot was investigated. Some of the compounds prepared in the examples were selected, the compound was dispersed in water to be diluted to approximately 25 ppm, thereby preparing a drug solution.
The drug solution was sprayed onto the foliage of the peppers planted in the pots and air-dried, and the pots were stored in a green house.
On day 5 after the drug spraying, the number of Myzus persicae (Sulzer) parasitic on each pepper was counted, a mortality rate was calculated from the following formula, and the rating of each compound was investigated.
[formula] • A rating: 90% to 100% mortality • B rating: 80% or more and less than 90% mortality • C rating: less than 80% mortality
As for `CCN(C(=O)c1cnc(-c2noc(C(F)F)n2)n1C)c1cccnc1` [Ia-1-1-2, 2-(5-(difluoromethyl)-1,2,4-oxadiazol-3-yl)-N-ethyl-1-methyl-N-(pyridin-3-yl)-1H-imidazole-5-carboxamide], the mortality at 25 µg/mL was in the range of 90 to 100%.
As for `CCN(C(=O)c1cnc(-c2noc(C(C)(C)C)n2)n1C)c1cccnc1` [Ia-1-1-5, 2-(5-(tert-butyl)-1,2,4-oxadiazol-3-yl)-N-ethyl-1-methyl-N-(pyridin-3-yl)-1H-imidazole-5-carboxamide], the mortality at 25 µg/mL fell in the range of 90 to 100%.
Turning to `CCN(C(=O)c1cnc(-c2noc(C(C)C)n2)n1C)c1cccnc1` [Ia-1-1-6, N-ethyl-2-(5-isopropyl-1,2,4-oxadiazol-3-yl)-1-methyl-N-(pyridin-3-yl)-1H-imidazole-5-carboxamide], the mortality at 25 µg/mL was 90 to 100%.
Then `CCCc1nc(-c2ncc(C(=O)N(CC)c3cccnc3)n2C)no1` [Ia-1-1-7, N-ethyl-1-methyl-2-(5-propyl-1,2,4-oxadiazol-3-yl)-N-(pyridin-3-yl)-1H-imidazole-5-carboxamide], with 90 to 100%; and `CCN(C(=O)c1cnc(-c2noc(CC3CC3)n2)n1C)c1cccnc1` [Ia-1-1-16, 2-(5-(cyclopropylmethyl)-1,2,4-oxadiazol-3-yl)-N-ethyl-1-methyl-N-(pyridin-3-yl)-1H-imidazole-5-carboxamide], with 90 to 100%.
Consider `CCN(C(=O)c1cnc(-c2noc(-c3ccccc3)n2)n1C)c1cccnc1` [Ia-1-1-21, N-ethyl-1-methyl-2-(5-phenyl-1,2,4-oxadiazol-3-yl)-N-(pyridin-3-yl)-1H-imidazole-5-carboxamide], for which the mortality at 25 µg/mL is 90 to 100%.
`CCN(C(=O)c1cnc(-c2noc(-c3cocn3)n2)n1C)c1cccnc1` [Ia-1-1-22, N-ethyl-1-methyl-2-(5-(oxazol-4-yl)-1,2,4-oxadiazol-3-yl)-N-(pyridin-3-yl)-1H-imidazole-5-carboxamide]: the mortality at 25 µg/mL was 90 to 100%.
The same measure for `CCN(C(=O)c1cnc(-c2noc(-c3cnco3)n2)n1C)c1cccnc1` [Ia-1-1-23, N-ethyl-1-methyl-2-(5-(oxazol-5-yl)-1,2,4-oxadiazol-3-yl)-N-(pyridin-3-yl)-1H-imidazole-5-carboxamide]: 90 to 100%; for `CCN(C(=O)c1cnc(-c2noc(-c3ccccc3F)n2)n1C)c1cccnc1` [Ia-1-1-24, N-ethyl-1-methyl-2-(5-(2-fluorophenyl)-1,2,4-oxadiazol-3-yl)-N-(pyridin-3-yl)-1H-imidazole-5-carboxamide]: 90 to 100%; for `CCN(C(=O)c1cnc(-c2noc(-c3cccnc3)n2)n1C)c1cccnc1` [Ia-1-1-30, N-ethyl-1-methyl-N-(pyridin-3-yl)-2-(5-(pyridin-3-yl)-1,2,4-oxadiazol-3-yl)-1H-imidazole-5-carboxamide]: 90 to 100%.
Then `CCN(C(=O)c1cnc(-c2noc(-c3ccncc3)n2)n1C)c1cccnc1` [Ia-1-1-31, N-ethyl-1-methyl-N-(pyridin-3-yl)-2-(5-(pyridin-4-yl)-1,2,4-oxadiazol-3-yl)-1H-imidazole-5-carboxamide], with 90 to 100%; and `CCN(C(=O)c1cnc(-c2noc(NC(C)C)n2)n1C)c1cccnc1` [Ia-1-1-33, N-ethyl-2-(5-(isopropylamino)-1,2,4-oxadiazol-3-yl)-1-methyl-N-(pyridin-3-yl)-1H-imidazole-5-carboxamide], with 90 to 100%; and `CCNc1nc(-c2ncc(C(=O)N(CC)c3cccnc3)n2C)no1` [Ia-1-1-35, N-ethyl-2-(5-(ethylamino)-1,2,4-oxadiazol-3-yl)-1-methyl-N-(pyridin-3-yl)-1H-imidazole-5-carboxamide], with 90 to 100%.
With `CCN(C(=O)c1cnc(-c2noc(N3CCOCC3)n2)n1C)c1cccnc1` [Ia-1-1-37, N-ethyl-1-methyl-2-(5-morpholino-1,2,4-oxadiazol-3-yl)-N-(pyridin-3-yl)-1H-imidazole-5-carboxamide], the mortality at 25 µg/mL is 90 to 100%.

Broadly, the mortality is the share of the test organisms that died.
